Source: US8906925B2, “Pyrido[4,3-B]indoles containing rigid moieties” (Medivation Technologies, Inc., priority 2008, dated 2014)
Where two headings read alike, the source gives them in different places.

What was measured:
[1] = target: T1, human recombinant serotonin (5-Hydroxytryptamine) 5-HT2A receptor (Homo sapiens, UniProt P28223); assay: Serotonin 5-HT2A radioligand binding ([3H]Ketanserin)
T1 construct: expressed in transfected cells; host or cells: Chinese hamster ovary (CHO-K1) cells
Method: Compounds of the invention were incubated with 0.5 nM [^3H]Ketanserin for 60 min. at 25° C. Non-specific binding was estimated in the presence of 1 μM Mianserin. Receptor proteins were filtered and washed, the filters were then counted to determine [^3H]Ketanserin specifically bound.

[2] = target: human dopamine D2L receptor (Homo sapiens, UniProt P14416); assay: Dopamine D2L radioligand binding ([3H]Spiperone); conditions: percent inhibition of specific binding, compound at 1 μM; for inhibition at 1 µM: read-out: Inhibition of ligand binding, Dopamine D2L; for Inhibition of ligand binding, Dopamine D2L: 1 µM
From the text: Non-specific binding was estimated in the presence of […] Haloperidol. Receptor proteins were filtered and washed, the filters were then counted to determine [^3H]Spiperone specifically bound. […] Biochemical assay results are presented as the percent inhibition of specific binding in Table 9.

[3] = target: T2, human recombinant adrenergic α2B receptor (Homo sapiens, UniProt P18089); assay: Adrenergic α2B radioligand binding ([3H]Rauwolscine); conditions: percent inhibition of specific binding; compound at 1 μM; read-out: Inhibition of ligand binding, Adrenergic α2B
T2 construct: expressed in transfected cells; host or cells: Chinese hamster ovary (CHO-K1) cells
T2 sequence (P18089 1-450): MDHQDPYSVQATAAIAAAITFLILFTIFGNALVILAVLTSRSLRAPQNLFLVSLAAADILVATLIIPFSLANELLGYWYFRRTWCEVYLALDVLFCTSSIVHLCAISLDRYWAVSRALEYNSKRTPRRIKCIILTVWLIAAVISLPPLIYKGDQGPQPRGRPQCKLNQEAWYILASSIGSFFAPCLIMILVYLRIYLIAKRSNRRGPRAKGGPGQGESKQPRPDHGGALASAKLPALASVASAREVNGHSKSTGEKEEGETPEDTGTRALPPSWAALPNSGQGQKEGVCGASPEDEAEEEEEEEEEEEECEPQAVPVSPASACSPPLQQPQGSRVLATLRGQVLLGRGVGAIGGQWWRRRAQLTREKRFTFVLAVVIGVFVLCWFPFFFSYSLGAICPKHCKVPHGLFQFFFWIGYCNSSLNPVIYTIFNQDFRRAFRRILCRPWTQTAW
Method in brief: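 Membranes from CHO-K1 cells expressing the receptor were incubated with 2.5 nM [3H]Rauwolscine for 60 min at 25 °C in Tris-HCl buffer pH 7.4 with MgCl2, EDTA and BSA. Non-specific binding was defined with 10 μM prazosin. Compounds were tested at ≤1 μM in 1% DMSO and read out as % inhibition of specific binding after filtration.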

[4] = target: T3, human recombinant serotonin (5-Hydroxytryptamine) 5-HT6 receptor (Homo sapiens, UniProt P50406); assay: Serotonin 5-HT6 radioligand binding ([3H]LSD); conditions: read-out: Inhibition of ligand binding, Serotonin 5-HT6 (percent inhibition of specific binding); for inhibition at 0.1 µM: compound at 0.1 μM; for inhibition at 1 µM: compound at 1 μM
T3 construct: expressed in transfected cells; host or cells: human HeLa cells
Method: Compounds of the invention were incubated with 1.5 nM [3H]Lysergic acid diethylamide (LSD) for 120 min. at 37° C. […] Receptor proteins were filtered and washed, the filters were then counted to determine [3H]LSD specifically bound. Compounds were screened at 1 μM or lower, using 1% DMSO as vehicle. Biochemical assay results are presented as the percent inhibition of specific binding in Table 10.

[5] = target: T4, human recombinant histamine H2 receptor (Homo sapiens, UniProt P25021); assay: Histamine H2 radioligand binding ([125I]Aminopotentidine); conditions: read-out: Histamine Binding (1 μM) H2, percent inhibition of specific binding, 1 μM
T4 construct: expressed in transfected cells; host or cells: Chinese hamster ovary (CHO) K1 cells
Method in brief: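 Receptor source: human recombinant H2 in CHO-K1 cells, assayed in 50 mM phosphate pH 7.4. Competition against 0.1 nM [125I]aminopotentidine, 120 min, 25 °C; 3 μM tiotidine sets nonspecific binding, filter-bound counts give specific binding.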

[6] = target: T5, human recombinant adrenergic α1D receptor (Homo sapiens, UniProt P25100); assay: Adrenergic α1D radioligand binding ([3H]Prozosin); conditions: percent inhibition of specific binding; compound at 1 μM; read-out: Inhibition of ligand binding, Adrenergic α1D
T5 construct: expressed in transfected cells; host or cells: human embryonic kidney (HEK-293) cells
T5 sequence (P25100 1-572): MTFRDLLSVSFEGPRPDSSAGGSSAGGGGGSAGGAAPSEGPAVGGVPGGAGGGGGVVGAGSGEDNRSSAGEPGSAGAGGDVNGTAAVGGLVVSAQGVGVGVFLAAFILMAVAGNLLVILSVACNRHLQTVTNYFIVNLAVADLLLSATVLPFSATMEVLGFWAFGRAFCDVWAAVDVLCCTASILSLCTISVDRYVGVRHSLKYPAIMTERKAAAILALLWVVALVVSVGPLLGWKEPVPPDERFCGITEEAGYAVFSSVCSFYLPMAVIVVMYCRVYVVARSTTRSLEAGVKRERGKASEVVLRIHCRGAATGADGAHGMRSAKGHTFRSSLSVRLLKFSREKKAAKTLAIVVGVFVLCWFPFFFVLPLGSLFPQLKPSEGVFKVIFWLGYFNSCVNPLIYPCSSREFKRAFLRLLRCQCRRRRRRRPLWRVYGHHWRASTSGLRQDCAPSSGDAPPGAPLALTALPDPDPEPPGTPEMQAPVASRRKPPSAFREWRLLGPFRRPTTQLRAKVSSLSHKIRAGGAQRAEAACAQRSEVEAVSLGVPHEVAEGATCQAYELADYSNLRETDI
Method: Compounds of invention were incubated with 0.6 nM [^3H]Prozosin for 60 min. at 25° C. Non-specific binding was estimated in the presence of 10 μM phentolamine. Receptor proteins were filtered and washed, the filters were then counted to determine [^3H]Prozosin specifically bound. Compounds were screened at 1 μM or lower, using 1% DMSO as vehicle. Biochemical assay results are presented as the percent inhibition of specific binding in Table 9.

[7] = target: human recombinant serotonin (5-Hydroxytryptamine) 5-HT7 receptor (Homo sapiens, UniProt P34969); assay: Serotonin 5-HT7 radioligand binding ([3H]LSD); conditions: for inhibition at 1 µM: compound at 1 μM; for inhibition at 1 µM / inhibition at 0.1 µM: read-out: Inhibition of ligand binding, Serotonin 5-HT7 (percent inhibition of specific binding); for Inhibition of ligand binding, Serotonin 5-HT7 (percent inhibition of specific binding) / inhibition at 0.1 µM: compound at 0.1 μM; for Inhibition of ligand binding, Serotonin 5-HT7 (percent inhibition of specific binding): 0.1 µM
From the text: Receptor proteins were filtered and washed, the filters were then counted to determine [^3H]LSD specifically bound.

[8] = read-out: Inhibition of ligand binding, Serotonin 5-HT2A (percent inhibition of specific binding), compound at 0.1 μM
[9] = read-out: Inhibition of ligand binding, Serotonin 5-HT2A (percent inhibition of specific binding), compound at 1 μM

Chain of human recombinant serotonin (5-Hydroxytryptamine) 5-HT7 receptor (P34969 whole entry): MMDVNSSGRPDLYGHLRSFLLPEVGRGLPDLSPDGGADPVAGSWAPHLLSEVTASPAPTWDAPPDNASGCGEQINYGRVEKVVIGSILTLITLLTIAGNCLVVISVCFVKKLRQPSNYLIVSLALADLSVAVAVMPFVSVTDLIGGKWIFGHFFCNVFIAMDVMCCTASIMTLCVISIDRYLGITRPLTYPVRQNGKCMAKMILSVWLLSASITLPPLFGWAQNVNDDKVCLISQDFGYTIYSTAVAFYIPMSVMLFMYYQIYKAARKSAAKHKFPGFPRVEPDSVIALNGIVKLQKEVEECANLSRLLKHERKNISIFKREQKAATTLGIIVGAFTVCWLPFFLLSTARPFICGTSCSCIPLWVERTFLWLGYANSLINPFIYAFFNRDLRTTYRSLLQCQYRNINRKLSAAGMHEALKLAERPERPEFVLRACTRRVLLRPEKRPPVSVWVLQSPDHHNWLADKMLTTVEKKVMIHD
T1 sequence (P28223 whole entry): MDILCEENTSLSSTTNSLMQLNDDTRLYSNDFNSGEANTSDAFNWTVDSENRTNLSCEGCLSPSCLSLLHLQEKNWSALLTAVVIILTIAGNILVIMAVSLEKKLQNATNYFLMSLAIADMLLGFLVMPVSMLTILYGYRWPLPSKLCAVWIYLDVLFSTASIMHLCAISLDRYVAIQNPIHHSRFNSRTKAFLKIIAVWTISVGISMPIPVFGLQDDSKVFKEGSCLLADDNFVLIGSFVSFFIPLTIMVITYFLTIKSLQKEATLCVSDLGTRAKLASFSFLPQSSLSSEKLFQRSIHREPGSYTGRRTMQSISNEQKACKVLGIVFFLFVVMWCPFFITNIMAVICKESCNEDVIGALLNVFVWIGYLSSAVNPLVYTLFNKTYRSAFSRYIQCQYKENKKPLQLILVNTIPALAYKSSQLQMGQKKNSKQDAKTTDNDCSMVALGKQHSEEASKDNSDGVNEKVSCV
Chain of human dopamine D2L receptor (P14416 whole entry): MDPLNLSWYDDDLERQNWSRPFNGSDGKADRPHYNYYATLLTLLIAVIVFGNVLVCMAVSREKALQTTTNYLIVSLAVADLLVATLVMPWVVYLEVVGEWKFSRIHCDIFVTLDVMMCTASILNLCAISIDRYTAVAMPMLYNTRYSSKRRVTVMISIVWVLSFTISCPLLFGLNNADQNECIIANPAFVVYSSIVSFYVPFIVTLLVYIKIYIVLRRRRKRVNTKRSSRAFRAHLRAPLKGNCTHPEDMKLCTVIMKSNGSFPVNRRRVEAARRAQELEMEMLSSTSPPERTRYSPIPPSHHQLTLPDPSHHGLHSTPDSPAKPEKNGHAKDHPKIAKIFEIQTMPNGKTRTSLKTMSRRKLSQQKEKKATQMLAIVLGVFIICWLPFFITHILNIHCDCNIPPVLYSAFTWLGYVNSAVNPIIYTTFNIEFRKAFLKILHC
T3 sequence (P50406 whole entry): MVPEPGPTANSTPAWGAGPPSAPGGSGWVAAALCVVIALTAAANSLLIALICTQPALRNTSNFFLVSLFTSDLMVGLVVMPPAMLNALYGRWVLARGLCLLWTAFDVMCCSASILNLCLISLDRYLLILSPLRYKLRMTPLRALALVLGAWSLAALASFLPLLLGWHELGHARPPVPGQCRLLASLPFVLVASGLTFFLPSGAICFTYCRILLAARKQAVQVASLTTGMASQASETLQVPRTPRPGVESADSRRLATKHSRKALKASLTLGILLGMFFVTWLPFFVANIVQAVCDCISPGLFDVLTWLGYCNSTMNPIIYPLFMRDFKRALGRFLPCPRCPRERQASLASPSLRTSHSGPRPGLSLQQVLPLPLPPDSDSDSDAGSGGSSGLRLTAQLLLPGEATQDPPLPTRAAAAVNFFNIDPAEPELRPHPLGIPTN
T4 sequence (P25021 whole entry): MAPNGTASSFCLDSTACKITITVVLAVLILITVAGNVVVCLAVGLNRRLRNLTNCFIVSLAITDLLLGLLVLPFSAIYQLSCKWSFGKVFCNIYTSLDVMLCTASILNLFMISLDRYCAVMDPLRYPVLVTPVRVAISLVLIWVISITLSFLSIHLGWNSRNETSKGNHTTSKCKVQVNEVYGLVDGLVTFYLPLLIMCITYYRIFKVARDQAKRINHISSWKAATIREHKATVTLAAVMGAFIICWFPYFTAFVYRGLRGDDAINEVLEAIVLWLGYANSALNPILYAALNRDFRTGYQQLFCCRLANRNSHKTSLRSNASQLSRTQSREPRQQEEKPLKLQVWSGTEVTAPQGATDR

Row | Compound | inhibition at 0.1 µM [1, 8] [%] | inhibition at 1 µM [1, 9] [%] | inhibition at 1 µM [2] [%] | inhibition at 1 µM [3] [%] | inhibition at 0.1 µM [4] [%] | inhibition at 1 µM [4] [%] | inhibition at 1 µM [5] [%] | inhibition at 1 µM [6] [%] | inhibition at 1 µM [7] [%] | Inhibition of ligand binding, Dopamine D2L [2] [%] | Inhibition of ligand binding, Serotonin 5-HT7 (percent inhibition of specific binding) [7] [%] | inhibition at 0.1 µM [7] [%] | inhibition at 0.1 µM ([1]; compound at 0.1 μM, read-out: Inhibition of ligand binding, Serotonin 5-HT2A (percent inhibition of specific binding)) [%] | inhibition at 1 µM ([1]; compound at 1 μM, read-out: Inhibition of ligand binding, Serotonin 5-HT2A (percent inhibition of specific binding)) [%]
1 | CN1CCc2c(c3cc(Cl)ccc3n2CC(C)(O)c2ccc(F)cc2)C1 (stereo not shown) [Compound 45, 1-(8-chloro-1,2,3,4-tetrahydro-2-methylpyrido[4,3-b]indol-5-yl)-2-(4-fluorophenyl)propan-2-ol] | 86 | 99 | 34 | 109 | 48 | 94 | 94 | 61 | 92 |  |  |  |  | 
2 | CCC(O)(Cn1c2c(c3cc(Cl)ccc31)CN(C)CC2)c1ccc(F)cc1 (stereo not shown) [Compound 78, 1-(8-chloro-1,2,3,4-tetrahydro-2-methylpyrido[4,3-b]indol-5-yl)-2-(4-fluorophenyl)butan-2-ol] | 76 | 97 | 27 | 87 | 78 | 101 | 89 | 49 | 97 | 33 |  |  |  | 
3 | CN1CCc2c(c3cc(Cl)ccc3n2CC(O)(c2ccc(F)cc2)C2CC2)C1 (stereo not shown) [Compound 82, 2-(8-chloro-1,2,3,4-tetrahydro-2-methylpyrido[4,3-b]indol-5-yl)-1-cyclopropyl-1-(4-fluorophenyl)ethanol] | 92 | 100 | 39 | 99 | 90 | 103 | 99 | 62 | 93 | 45 | 95 | 86 |  | 
4 | C/C(=C\n1c2c(c3cc(Cl)ccc31)CN(C)CC2)c1ccc(F)cc1 [Compound 83, (E)-8-chloro-5-(2-(4-fluorophenyl)prop-1-enyl)-2,3,4,5-tetrahydro-2-methyl-1H-pyrido[4,3-b]indole] |  |  | 98 | 121 | 96 | 102 | 99 | 96 | 93 |  | 96 | 82 | 98 | 99
5 | C/C(=C\n1c2c(c3cc(C)ccc31)CN(C)CC2)c1ccc(F)cc1 [Compound 87, (E)-5-(2-(4-fluorophenyl)prop-1-enyl)-2,3,4,5-tetrahydro-2,8-dimethyl-1H-pyrido[4,3-b]indole] | 100 | 99 | 97 | 121 | 97 | 101 | 100 | 99 | 100 |  |  |  |  | 
6 | C/C(=C\n1c2c(c3cc(Cl)ccc31)CN(C)CC2)c1ccncc1 [Compound 90, (E)-8-chloro-2,3,4,5-tetrahydro-2-methyl-5-(2-(pyridin-4-yl)prop-1-enyl)-1H-pyrido[4,3-b]indole] | 97 | 100 | 93 | 104 | 102 | 103 | 60 | 93 |  | 98 |  | 82 |  | 
7 | C/C(=C\n1c2c(c3cc(Cl)ccc31)CN(C)CC2)c1ccc(Cl)cc1 [Compound 100, (E)-8-chloro-5-(2-(4-chlorophenyl)prop-1-enyl)-2,3,4,5-tetrahydro-2-methyl-1H-pyrido[4,3-b]indole] | 97 | 101 | 67 | 97 | 62 | 95 | 100 | 87 | 99 | 68 |  |  |  | 
8 | CN1CCc2c(c3cc(Cl)ccc3n2/C=C(/c2ccc(F)cc2)C2CC2)C1 [Compound 110, (E)-8-chloro-5-(2-cyclopropyl-2-(4-fluorophenyl)vinyl)-2,3,4,5-tetrahydro-2-methyl-1H-pyrido[4,3-b]indole] | 102 | 98 | 96 | 92 | 102 | 104 | 102 | 86 | 92 | 98 |  |  |  | 
9 | C=C(Cn1c2c(c3cc(Cl)ccc31)CN(C)CC2)c1ccc(F)cc1 [Compound 128, 8-chloro-5-(2-(4-fluorophenyl)allyl)-2,3,4,5-tetrahydro-2-methyl-1H-pyrido[4,3-b]indole] | 99 | 100 | 97 | 120 | 94 | 101 | 100 | 91 | 98 |  |  |  |  | 
10 | C=C(Cn1c2c(c3cc(C)ccc31)CN(C)CC2)c1ccc(F)cc1 [Compound 132, 5-(2-(4-fluorophenyl)allyl)-2,3,4,5-tetrahydro-2,8-dimethyl-1H-pyrido[4,3-b]indole] |  | 100 | 91 | 118 |  | 100 | 96 | 93 | 103 |  |  |  |  | 
